Test results: patent US20080194585A1, “Fungicidal Pyrazine Derivatives” (priority 2005, published 2008)
Marks after values point to notes of the source that are not given here.

Columns and labels:
Plasmopara viticola = assay: Test D: grape downy mildew, spray after inoculation of grape seedlings; type: in vivo
Description: Upon removal, disease ratings were made. […] A dash (-) indicates no test results.

[1] = tested on: Puccinia recondita f. sp. tritici; assay: Test K: wheat leaf rust, preventive spray on wheat seedlings
Phytophthora infestans = assay: whole plant or invertebrate; type: in vivo
Botrytis cinerea = assay: Test E: tomato botrytis, preventive spray on tomato seedlings
Pythium aphanidermatum = assay: Test A: bluegrass pythium blight, preventive spray on bluegrass seedlings
[2] = tested on: Erysiphe graminis f. sp. tritici; assay: Test L: wheat powdery mildew, preventive spray on wheat seedlings
[3] = tested on: Colletotrichum orbiculare; assay: Test B: cucumber Colletotrichum anthracnose, preventive spray on cucumber seedlings
Septoria tritici = assay: Test J: wheat leaf blotch, preventive spray on wheat seedlings; type: in vivo
Description: A dash (-) indicates no test results.

fusarium graminearium = assay: Test I: wheat head scab, preventive spray on wheat seedlings
Description: (the causal agent of wheat head scab) and incubated in a saturated atmosphere at 20° C. for 72 h, and then moved to a growth chamber at 22° C. for 5 days, after which disease ratings were made.

Septoria nodorum = assay: Test H: wheat glum blotch, preventive spray on wheat seedlings
Description: (the causal agent of wheat glum blotch) and incubated in a saturated atmosphere at 20° C. for 48 h, and then moved to a growth chamber at 22° C. for 5 days, after which disease ratings were made.

Sclerotinia sclerotiorum = assay: Test C: cucumber white mold, preventive spray on cucumber seedlings
Rhizoctonia oryzae = assay: Test G: turf brown patch, preventive spray on creeping bent grass seedlings
Description: (the causal agent of turf brown patch) and incubated in a saturated atmosphere at 27° C. for 24 h, and then moved to a growth chamber at 27° C. for 5 days, after which disease ratings were made.

[4] = 40 ppm (marked *), 100 = 100% disease control, 0 = no control
[5] = 200 ppm, 100 = 100% disease control, 0 = no control

| SMILES | Test D disease control rating (Plasmopara viticola; 200 ppm) | Test F disease control rating (Phytophthora infestans; 200 ppm) | Test A disease control rating (Pythium aphanidermatum; 200 ppm) | Test I disease control rating (fusarium graminearium; 200 ppm) | Test C disease control rating (Sclerotinia sclerotiorum; 200 ppm) | Test D disease control rating (Plasmopara viticola; 40 ppm (*)) | Test K disease control rating ([1]; 40 ppm (*)) | Test F disease control rating (Phytophthora infestans; 40 ppm (*)) | Test E disease control rating (Botrytis cinerea; 40 ppm (*)) | Test A disease control rating (Pythium aphanidermatum; 40 ppm (*)) | Test L disease control rating ([2]; 40 ppm (*)) | Test B disease control rating ([3]; 40 ppm (*)) | Test J disease control rating (Septoria tritici; 40 ppm (*)) | Test I disease control rating (fusarium graminearium; 40 ppm (*)) | Test H disease control rating (Septoria nodorum; 40 ppm (*)) | Test C disease control rating (Sclerotinia sclerotiorum; 40 ppm (*)) | Test G disease control rating (Rhizoctonia oryzae; 40 ppm (*)) | further results |
| --- | --- | --- | --- | --- | --- | --- | --- | --- | --- | --- | --- | --- | --- | --- | --- | --- | --- | --- |
| Cc1nc(C)n(-c2nc(Cl)c(-c3ccc(Cl)cc3)n(CC(C)C)c2=O)n1 [compound 24] | 5% | 0% | 0% | 0% | 0% |  |  |  |  |  |  |  |  |  |  |  |  | Test K disease control rating ([1]; 200 ppm): 0%; Test E disease control rating (Botrytis cinerea; 200 ppm): 0%; Test L disease control rating ([2]; 200 ppm): 0%; Test B disease control rating ([3]; 200 ppm): 0%; Test J disease control rating (Septoria tritici; 200 ppm): 80%; Test H disease control rating (Septoria nodorum; 200 ppm): 0%; Test G disease control rating (Rhizoctonia oryzae; 200 ppm): 0% |
| CC(C)Cn1c(-c2ccccc2)c(Cl)nc(-n2cccn2)c1=O [compound 172] |  |  |  |  |  | 0* % | 0* % | 57* % | 07* % | 0* % | 0* % | 0* % | 64* % | 0* % | 0* % | 0* % | 41* % |  |
| CCC(C)Cn1c(-c2c(F)cc(F)cc2F)c(Cl)nc(-n2cccn2)c1=O (stereo not drawn) [compound 19] | 46% | 27% | 0% | 90% | 98% |  |  |  |  |  |  |  |  |  |  |  |  | Test K disease control rating ([1]; 200 ppm): 100%; Test E disease control rating (Botrytis cinerea; 200 ppm): 100%; Test L disease control rating ([2]; 200 ppm): 100%; Test B disease control rating ([3]; 200 ppm): 100%; Test J disease control rating (Septoria tritici; 200 ppm): 100%; Test H disease control rating (Septoria nodorum; 200 ppm): 100%; Test G disease control rating (Rhizoctonia oryzae; 200 ppm): 100% |
| O=c1c(-n2cccn2)nc(Cl)c(-c2c(F)cccc2F)n1C1CCCCC1 [compound 47] | 0% | 0% | 74% | 78% | 0% |  |  |  |  |  |  |  |  |  |  |  |  | Test K disease control rating ([1]; 200 ppm): 95%; Test E disease control rating (Botrytis cinerea; 200 ppm): 100%; Test L disease control rating ([2]; 200 ppm): 99%; Test B disease control rating ([3]; 200 ppm): 54%; Test J disease control rating (Septoria tritici; 200 ppm): 100%; Test H disease control rating (Septoria nodorum; 200 ppm): 99%; Test G disease control rating (Rhizoctonia oryzae; 200 ppm): 92% |
| O=c1c(-n2cncn2)nc(Cl)c(-c2c(F)cccc2F)n1CC1CCCO1 (stereo not drawn) [compound 92] | 0% | 0% | 0% | 0% | 0% |  | 0* % |  | 0* % |  | 0* % | 0* % | 7* % |  | 0* % |  | 0* % |  |
| CC(C)Cn1c(-c2cccc(C(F)(F)F)c2)c(Cl)nc(-n2cccn2)c1=O [compound 233] |  |  |  |  |  | 0* % | 0* % | 0* % | 0* % | 0* % | 0* % | 0* % | 0* % | 0* % | 0* % | 0* % | 0* % |  |
| O=c1c(-n2cncn2)nc(Cl)c(-c2c(F)cccc2F)n1Cc1ccc(F)cc1 [compound 273] |  |  |  |  |  |  |  |  |  |  |  |  |  |  |  |  |  | Test D disease control rating (Plasmopara viticola; [4]): 0* %; Test K disease control rating [1, 4]: 86* %; Test F disease control rating (Phytophthora infestans; [4]): 0* %; Test E disease control rating (Botrytis cinerea; [4]): 99* %; Test A disease control rating (Pythium aphanidermatum; [4]): 0* %; Test L disease control rating [2, 4]: 0* %; Test B disease control rating [3, 4]: 0* %; Test J disease control rating (Septoria tritici; [4]): 92* %; Test I disease control rating (fusarium graminearium; [4]): 0* %; Test H disease control rating (Septoria nodorum; [4]): 0* %; Test C disease control rating (Sclerotinia sclerotiorum; [4]): 0* %; Test G disease control rating (Rhizoctonia oryzae; [4]): 0* % |
| CC(C)Cn1c(-c2cccnc2Cl)c(Cl)nc(-n2cncn2)c1=O [compound 236] |  |  |  |  |  | 0* % | 0* % | 0* % | 0* % | 0* % | 0* % | 0* % | 0* % | 0* % | 0* % | 0* % | 0* % |  |
| Cc1ccn(-c2nc(Cl)c(-c3cccc4c3OCO4)n(CC(C)C)c2=O)n1 [compound 255] |  |  |  |  |  |  |  |  |  |  |  |  |  |  |  |  |  | Test D disease control rating (Plasmopara viticola; [5]): 0%; Test K disease control rating [1, 5]: 61%; Test F disease control rating (Phytophthora infestans; [5]): 0%; Test E disease control rating (Botrytis cinerea; [5]): 99%; Test A disease control rating (Pythium aphanidermatum; [5]): 0%; Test L disease control rating [2, 5]: 0%; Test B disease control rating [3, 5]: 0%; Test J disease control rating (Septoria tritici; [5]): 71%; Test I disease control rating (fusarium graminearium; [5]): 0%; Test H disease control rating (Septoria nodorum; [5]): 0%; Test C disease control rating (Sclerotinia sclerotiorum; [5]): 0%; Test G disease control rating (Rhizoctonia oryzae; [5]): 0% |
| COCC(C)n1c(-c2c(F)cccc2F)c(Cl)nc(-n2cccn2)c1=O (stereo not drawn) [compound 93] | 0% | 60% | 0% | 0% | 0% |  | 98* % |  | 79* % |  | 97* % | 0* % | 83* % |  | 96* % |  | 70* % |  |
| CC(C)Cn1c(-c2cccc3ccccc23)c(Cl)nc(-n2cccn2)c1=O [compound 131] |  |  |  |  |  | 0* % | 0* % | 0* % | 0* % | 0* % | 0* % | 0* % | 52* % | 0* % | 0* % | 0* % | 0* % |  |
| COCCn1c(-c2c(F)cccc2F)c(Cl)nc(-n2cncn2)c1=O [compound 96] | 0% | 0% | 0% | 0% | 0% |  | 0* % |  | 0* % |  | 0* % | 0* % | 0* % |  | 0* % |  | 0* % |  |
